The NIST ThermoML archive (doi:10.1016/j.jct.2014.07.004)

Conditions: Liquid, Closed cell (Static) method

CC1COC(=O)O1 (stereo not given) [4-methyl-1,3-dioxolan-2-one]
Conditions | vapor or sublimation pressure [kPa]
327.12 K | 0.057
331.22 K | 0.078
338.15 K | 0.123
343.15 K | 0.185
348.15 K | 0.221
353.15 K | 0.287

CCOC(=O)OCC [diethyl carbonate]
Conditions | vapor or sublimation pressure [kPa]
277.96 K | 0.401
282.06 K | 0.515
286.15 K | 0.666
288.15 K | 0.797
293.15 K | 1.031
298.15 K | 1.414
303.15 K | 1.844
306.64 K | 2.347
310.74 K | 3.012
318.15 K | 4.582
323.15 K | 6.172
328.15 K | 7.162
333.15 K | 9.088
338.15 K | 11.56
343.15 K | 13.78
348.15 K | 16.09
353.15 K | 20.83

COC(=O)OC [dimethyl carbonate]
Conditions | vapor or sublimation pressure [kPa]
277.96 K | 2.298
282.06 K | 3.121
286.15 K | 4.019
290.25 K | 4.863
294.35 K | 6.311
298.15 K | 6.982
302.54 K | 9.72
306.64 K | 11.7
310.74 K | 14.02
318.15 K | 19.82
323.15 K | 23.07

CCOC(=O)OC [ethyl methyl carbonate]
Conditions | vapor or sublimation pressure [kPa]
277.96 K | 0.958
282.06 K | 1.285
283.15 K | 1.516
288.15 K | 2.008
293.15 K | 2.439
298.15 K | 3.658
303.15 K | 4.534
308.15 K | 5.801
310.74 K | 6.739
314.83 K | 7.885
323.15 K | 12.28
328.15 K | 15.26
333.15 K | 18.28

O=C1OCCO1 [ethylene carbonate]
Conditions | vapor or sublimation pressure [kPa]
333.15 K | 0.045
338.15 K | 0.066
343.15 K | 0.087
348.15 K | 0.124
353.15 K | 0.175

O [water]
Conditions | vapor or sublimation pressure [kPa]
277.96 K | 0.961
282.06 K | 1.243
286.15 K | 1.442
290.25 K | 1.947
294.35 K | 2.537
298.44 K | 3.288
302.54 K | 4.068
306.64 K | 5.035
310.74 K | 7.056
314.83 K | 8.582
318.93 K | 9.702
323.03 K | 11.46
327.12 K | 15.18
